Drawing on patent publication US9499550B2 (BRISTOL-MYERS SQUIBB COMPANY, priority 2012, dated 2016), this text covers EC50 for twelve molecules.

Test [1] has as its system HCV genotype 1b (Con1) replicon in HUH-7 cells. The test can be described thus: HCV replicon luciferase reporter assay, genotype 1b. To be noted: Hepatitis C virus, Huh-7, 72 h, HCV genotype 1b replicon luciferase, 3 days incubation, read-out: LE_1b (EC50, range). The test is classed as cell-based. The procedure, abridged: (§1)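 Replicon inhibition for both genotypes was measured as Renilla luciferase signal (EnduRen, 7.5 μM final, 2 h) after 3-day, 37° C exposure of replicon-bearing HUH-7 cells in 4% FCS DMEM, 0.5% DMSO. The 1b construct carries S1179I; the 1a H77 construct carries P1496L and S2204I. Twenty-point, 3-fold dilutions were fitted four-parametrically for EC50, and CC50 was taken from multiplexed Cell Titer-Blue.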

Test [2] concerns HCV genotype 1a (H77 strain) replicon in HUH-7 cells. The test can be described thus: HCV replicon luciferase reporter assay, genotype 1a. The format is cell-based. To be noted: Hepatitis C virus, Huh-7, 72 h, HCV genotype 1a replicon luciferase, 3 days incubation, read-out: LE_1a (EC50, range). The procedure, abridged: as §1
A general note: A replicon is a self-replicating genome or part of one, used to study replication in cells.

Some results are limits rather than exact numbers.

For orientation: EC50 means the concentration needed to bring the measured effect to its halfway point. For the molecule `COc1ccc2c(O[C@@H]3C[C@H]4C(=O)N[C@]5(C(=O)NS(=O)(=O)C6CC6)C[C@H]5/C=C\CC[C@H](C)C[C@@H](C)[C@H](NC(=O)OC(C)(C)C)C(=O)N4C3)nc(-c3ccccc3)cc2c1` [Compound 5186, tert-butyl ((2R,6S,7R,9S,13aS,14aR,16aS,Z)-14a-((cyclopropylsulfonyl)carbamoyl)-2-((6-methoxy-3-phenylisoquinolin-1-yl)oxy)-7,9-dimethyl-5,16-dioxo-1,2,3,5,6,7,8,9,10,11,13a,14,14a,15,16,16a-hexadecahydrocyclopropa[e]pyrrolo[1,2-a][1,4]diazacyclopentadecin-6-yl)carbamate], the EC50 in test [1] and in test [2] was under 5.46 nM throughout.

Turning to `COc1ccc2c(O[C@@H]3C[C@H]4C(=O)N[C@]5(C(=O)NS(=O)(=O)C6CC6)C[C@H]5/C=C\CC[C@@H](C)C[C@@H](C)[C@H](NC(=O)O[C@@H]5C[C@@H]6C[C@@H]6C5)C(=O)N4C3)nc(-c3ccccc3)cc2c1` [Compound 5188, (1R,3r,5S)-bicyclo[3.1.0]hexan-3-yl((2R,6S,7R,9R,13aS,14aR,16aS,Z)-14a-((cyclopropylsulfonyl)carbamoyl)-2-((6-methoxy-3-phenylisoquinolin-1-yl)oxy)-7,9-dimethyl-5,16-dioxo-1,2,3,5,6,7,8,9,10,11,13a,14,14a,15,16,16a-hexadecahydrocyclopropa[e]pyrrolo[1,2-a][1,4]diazacyclopentadecin-6-yl)carbamate], the EC50 in test [1] and in test [2] was under 5.46 nM in each case.

For the molecule `COc1ccc2c(O[C@@H]3C[C@H]4C(=O)N[C@]5(C(=O)NS(=O)(=O)C6CC6)C[C@H]5/C=C\CC[C@H](C)C[C@@H](C)[C@H](NC(=O)O[C@@H]5C[C@@H]6C[C@@H]6C5)C(=O)N4C3)nc(-c3ccccc3)cc2c1` [Compound 5189, (1R,3r,5S)-bicyclo[3.1.0]hexan-3-yl((2R,6S,7R,9S,13aS,14aR,16aS,Z)-14a-((cyclopropylsulfonyl)carbamoyl)-2-((6-methoxy-3-phenylisoquinolin-1-yl)oxy)-7,9-dimethyl-5,16-dioxo-1,2,3,5,6,7,8,9,10,11,13a,14,14a,15,16,16a-hexadecahydrocyclopropa[e]pyrrolo[1,2-a][1,4]diazacyclopentadecin-6-yl)carbamate], the EC50 in test [1] and in test [2] was under 5.46 nM throughout.

As for `COc1ccc2c(O[C@@H]3C[C@H]4C(=O)N[C@]5(C(=O)NS(=O)(=O)C6CC6)C[C@H]5/C=C\CC[C@H](C)C[C@@H](C)[C@H](NC(=O)OC(C)(C)C(F)(F)F)C(=O)N4C3)nc(-c3ccccc3)cc2c1` [Compound 5191, 1,1,1-trifluoro-2-methylpropan-2-yl((2R,6S,7R,9S,13aS,14aR,16aS,Z)-14a-((cyclopropylsulfonyl)carbamoyl)-2-((6-methoxy-3-phenylisoquinolin-1-yl)oxy)-7,9-dimethyl-5,16-dioxo-1,2,3,5,6,7,8,9,10,11,13a,14,14a,15,16,16a-hexadecahydrocyclopropa[e]pyrrolo[1,2-a][1,4]diazacyclopentadecin-6-yl)carbamate], the EC50 in test [1] and in test [2] was under 5.46 nM each time.

`COc1ccc2c(O[C@@H]3C[C@H]4C(=O)N[C@]5(C(=O)NS(=O)(=O)C6CC6)C[C@H]5/C=C\CC[C@H](C)C[C@@H](C)[C@H](NC(=O)OC(C)(C)C)C(=O)N4C3)nc(-c3ccc(N4CCOCC4)cc3)cc2c1` [Compound 5192, tert-butyl ((2R,6S,7R,9S,13aS,14aR,16aS,Z)-14a-((cyclopropylsulfonyl)carbamoyl)-2-((6-methoxy-3-(4-morpholinophenyl)isoquinolin-1-yl)oxy)-7,9-dimethyl-5,16-dioxo-1,2,3,5,6,7,8,9,10,11,13a,14,14a,15,16,16a-hexadecahydrocyclopropa[e]pyrrolo[1,2-a][1,4]diazacyclopentadecin-6-yl)carbamate]: the EC50 in test [1] and in test [2] was under 5.46 nM each time.

As to `COc1ccc2c(O[C@@H]3C[C@H]4C(=O)N[C@]5(C(=O)NS(=O)(=O)C6CC6)C[C@H]5/C=C\CC[C@@H](C)C[C@@H](C)[C@H](NC(=O)OC(C)(C)C)C(=O)N4C3)nc(-c3ccc(N4CCOCC4)cc3)cc2c1` [Compound 5193, tert-butyl ((2R,6S,7R,9R,13aS,14aR,16aS,Z)-14a-((cyclopropylsulfonyl)carbamoyl)-2-((6-methoxy-3-(4-morpholinophenyl)isoquinolin-1-yl)oxy)-7,9-dimethyl-5,16-dioxo-1,2,3,5,6,7,8,9,10,11,13a,14,14a,15,16,16a-hexadecahydrocyclopropa[e]pyrrolo[1,2-a][1,4]diazacyclopentadecin-6-yl)carbamate], the EC50 in test [1] and in test [2] was under 5.46 nM in each case.

As to `COc1ccc2c(O[C@@H]3C[C@H]4C(=O)N[C@]5(C(=O)NS(=O)(=O)C6CC6)C[C@H]5/C=C\CC[C@H](C)C[C@@H](C)[C@H](NC(=O)OC5C[C@@H]6C[C@@H]6C5)C(=O)N4C3)nc(-c3ccc(N4CCOCC4)cc3)cc2c1` (stereo partly drawn) [Compound 5194, (1R,3r,5S)-bicyclo[3.1.0]hexan-3-yl((2R,6S,7R,9S,13aS,14aR,16aS,Z)-14a-((cyclopropylsulfonyl)carbamoyl)-2-((6-methoxy-3-(4-morpholinophenyl)isoquinolin-1-yl)oxy)-7,9-dimethyl-5,16-dioxo-1,2,3,5,6,7,8,9,10,11,13a,14,14a,15,16,16a-hexadecahydrocyclopropa[e]pyrrolo[1,2-a][1,4]diazacyclopentadecin-6-yl)carbamate], the EC50 in test [1] and in test [2] was under 5.46 nM each time.

Regarding `COc1ccc2c(O[C@@H]3C[C@H]4C(=O)N[C@]5(C(=O)NS(=O)(=O)C6CC6)C[C@H]5/C=C\CC[C@@H](C)C[C@@H](C)[C@H](NC(=O)OC5C[C@@H]6C[C@@H]6C5)C(=O)N4C3)nc(-c3ccc(N4CCOCC4)cc3)cc2c1` (stereo partly drawn) [Compound 5195, (1R,3r,5S)-bicyclo[3.1.0]hexan-3-yl((2R,6S,7R,9R,13aS,14aR,16aS,Z)-14a-((cyclopropylsulfonyl)carbamoyl)-2-((6-methoxy-3-(4-morpholinophenyl)isoquinolin-1-yl)oxy)-7,9-dimethyl-5,16-dioxo-1,2,3,5,6,7,8,9,10,11,13a,14,14a,15,16,16a-hexadecahydrocyclopropa[e]pyrrolo[1,2-a][1,4]diazacyclopentadecin-6-yl)carbamate], the EC50 in test [1] and in test [2] was under 5.46 nM each time.

`COc1ccc2c(O[C@@H]3C[C@H]4C(=O)N[C@]5(C(=O)NS(=O)(=O)C6CC6)C[C@H]5/C=C\CC[C@H](C)C[C@@H](C)[C@H](NC(=O)OC(C)(C)C(F)(F)F)C(=O)N4C3)nc(-c3ccc(N4CCOCC4)cc3)cc2c1` [Compound 5196, 1,1,1-trifluoro-2-methylpropan-2-yl((2R,6S,7R,9S,13aS,14aR,16aS,Z)-14a-((cyclopropylsulfonyl)carbamoyl)-2-((6-methoxy-3-(4-morpholinophenyl)isoquinolin-1-yl)oxy)-7,9-dimethyl-5,16-dioxo-1,2,3,5,6,7,8,9,10,11,13a,14,14a,15,16,16a-hexadecahydrocyclopropa[e]pyrrolo[1,2-a][1,4]diazacyclopentadecin-6-yl)carbamate]: the EC50 in test [1] and in test [2] was under 5.46 nM in each case.

Turning to `COc1ccc2c(O[C@@H]3C[C@H]4C(=O)N[C@]5(C(=O)NS(=O)(=O)C6CC6)C[C@H]5/C=C\CC[C@@H](C)C[C@@H](C)[C@H](NC(=O)OC(C)(C)C(F)(F)F)C(=O)N4C3)nc(-c3ccc(N4CCOCC4)cc3)cc2c1` [Compound 5197, 1,1,1-trifluoro-2-methylpropan-2-yl((2R,6S,7R,9R,13aS,14aR,16aS,Z)-14a-((cyclopropylsulfonyl)carbamoyl)-2-((6-methoxy-3-(4-morpholinophenyl)isoquinolin-1-yl)oxy)-7,9-dimethyl-5,16-dioxo-1,2,3,5,6,7,8,9,10,11,13a,14,14a,15,16,16a-hexadecahydrocyclopropa[e]pyrrolo[1,2-a][1,4]diazacyclopentadecin-6-yl)carbamate], the EC50 in test [1] and in test [2] was under 5.46 nM each time.

On to `COc1ccc2c(O[C@@H]3C[C@H]4C(=O)N[C@]5(C(=O)NS(=O)(=O)C6(C)CC6)C[C@H]5/C=C\CC[C@H](C)C[C@@H](C)[C@H](NC(=O)OC(C)(C)C(F)(F)F)C(=O)N4C3)nc(-c3ccc(N4CCOCC4)cc3)cc2c1` [Compound 5198, 1,1,1-trifluoro-2-methylpropan-2-yl((2R,6S,7R,9S,13aS,14aR,16aS,Z)-2-((6-methoxy-3-(4-morpholinophenyl)isoquinolin-1-yl)oxy)-7,9-dimethyl-14a-(((1-methylcyclopropyl)sulfonyl)carbamoyl)-5,16-dioxo-1,2,3,5,6,7,8,9,10,11,13a,14,14a,15,16,16a-hexadecahydrocyclopropa[e]pyrrolo[1,2-a][1,4]diazacyclopentadecin-6-yl)carbamate], for which the EC50 is under 5.46 nM in test [1] and 4.82 to 103 nM in test [2].

`COc1ccc2c(O[C@@H]3C[C@H]4C(=O)N[C@]5(C(=O)NS(=O)(=O)C6(C)CC6)C[C@H]5/C=C\CC[C@@H](C)C[C@@H](C)[C@H](NC(=O)OC(C)(C)C(F)(F)F)C(=O)N4C3)nc(-c3ccc(N4CCOCC4)cc3)cc2c1` [Compound 5199, 1,1,1-trifluoro-2-methylpropan-2-yl((2R,6S,7R,9R,13aS,14aR,16aS,Z)-2-((6-methoxy-3-(4-morpholinophenyl)isoquinolin-1-yl)oxy)-7,9-dimethyl-14a-(((1-methylcyclopropyl)sulfonyl)carbamoyl)-5,16-dioxo-1,2,3,5,6,7,8,9,10,11,13a,14,14a,15,16,16a-hexadecahydrocyclopropa[e]pyrrolo[1,2-a][1,4]diazacyclopentadecin-6-yl)carbamate]: the EC50 in test [1] and in test [2] was under 5.46 nM each time.
